Laboratory results published in patent US11844801B2, “Oral compositions of MK2 pathway inhibitor for treatment of immune conditions” (priority 2020, dated 2023).
Several values for one entry are separate records, joined by “and”; a condition that tells them apart may be missing. Equal entries are not always repeated. Where two headings read alike, the source gives them in different places. Marks after values point to notes of the source that are not given here.

Assay: Phase 1 SAD/MAD pharmacokinetics of oral ATI-450 in healthy subjects (incl. 80/120 mg BID extension)
Assay type: in vivo, human
Details: for Cmax: read-out: Cmax; for concentration at 2 day: day 2; for concentration at 3 day: day 3; for concentration at 4 day: day 4; for concentration at 5 day: day 5; for concentration at 6 day: day 6; for Vd/F: read-out: Vss/F
Procedure: Study Design. […] Single ascending dose (SAD) cohorts. […] Multiple ascending dose (MAD) cohorts. […] Blood Sampling and Bioanalysis. Two-milliliter blood samples were collected for PK analysis. […] The lower limit of quantification was 0.500 ng/mL. Pharmacokinetics. […] Bioanalysis Assay of ATI-450. Sample processing was performed by protein precipitation using a 50.0-μL sample volume. […] A triple quadrupole 6500 mass spectrometer equipped with a turbo-ion spray source was used for detection in positive ion mode. […] A linear calibration curve ranging from 0.500 to 500 ng/mL with a 1/x^2 weighting factor was used. The method was minimally required to have intra- and inter-day precision (coefficients of variation) for pooled plasma quality control samples of ≤15% except at the lower limit of quantitation, where ≤20% was acceptable. The calculated concentrations (both inter- and intra-day) were required to be within 15% of nominal at all concentrations except the lower limit of quantitation, where up to 20% deviation from nominal was acceptable. The precision and accuracy of the method exceeded these minimum requirements for assay validation.

[1] = both sexes, human, plasma, oral, 80 mg, 80 mg BID, read-out: Ctrough
[2] = both sexes, human, plasma, oral, 80 mg, 80 mg BID, day 7
[3] = both sexes, human, plasma, oral, 120 mg, 120 mg BID, day 1
[4] = both sexes, human, plasma, oral, 120 mg, 120 mg BID, read-out: Ctrough
[5] = both sexes, human, plasma, oral, 120 mg, 120 mg BID, day 7
[6] = both sexes, human, plasma, po, 10 mg, single oral dose 10 mg, fasted
[7] = both sexes, human, plasma, po, 30 mg, single oral dose 30 mg, fasted
[8] = both sexes, human, plasma, po, 50 mg, single oral dose 50 mg, fasted
[9] = both sexes, human, plasma, po, 100 mg, single oral dose 100 mg, fasted
[10] = both sexes, human, plasma, po, 100 mg, single oral dose 100 mg, fed (high-fat, high-calorie breakfast)
[11] = single oral dose 100 mg, fasted

## Cc1cnc(-c2ccnc(C(C)(C)O)n2)cc1-n1c(C)cc(OCc2ncc(F)cc2F)c(Cl)c1=O (single isomer, unassigned) [ATI-450, 3-chloro-4-((3,5-difluoropyridin-2-yl)methoxy)-2′-(2-(2-hydroxypropan-2-yl)pyrimidin-4-yl)-5′,6-dimethyl-2H-[1,4′-bipyridin]-2-one]
Both sexes, human, plasma, oral, 80 mg, 80 mg BID, day 1
  Cmax: 258 ± 83.8 ng/mL
Both sexes, human, plasma, oral, 80 mg, 80 mg BID, day 1, read-out: Tmax, median (min, max)
  Tmax: 2 h
[1]
  concentration at 2 day: 176 ± 67.5 ng/mL
  concentration at 3 day: 149 ± 54 ng/mL
  concentration at 4 day: 148 ± 59.9 ng/mL
  concentration at 5 day: 145 ± 78.3 ng/mL
  concentration at 6 day: 144 ± 64.9 ng/mL
[2]
  AUC: 2550 ± 730 ng·h/mL
  Cmax: 389 ng/mL
Both sexes, human, plasma, oral, 80 mg, 80 mg BID, day 7, read-out: AUC0-24, total daily exposure calculated as AUC0-12 × 2
  AUC(0-t): 5100 ng·h/mL
Both sexes, human, plasma, oral, 80 mg, 80 mg BID, day 7, read-out: AUC0-t
  AUC(0-t): 4030 ± 1150 ng·h/mL
Both sexes, human, plasma, oral, 80 mg, 80 mg BID, day 7, read-out: Cavg
  concentration at 7 day: 212 ± 60.8 ng/mL
Both sexes, human, plasma, oral, 80 mg, 80 mg BID, day 7, read-out: Cmin
  concentration at 7 day: 100 ± 39.8 ng/mL
Both sexes, human, plasma, oral, 80 mg, 80 mg BID, day 7, read-out: Tmax, median (min, max)
  Tmax: 2 h
Both sexes, human, plasma, oral, 80 mg, 80 mg BID, day 7, read-out: t1/2 (converted)
  half-life: 14.3 ± 5.3 h
Both sexes, human, plasma, oral, 120 mg BID, day 7, read-out: Ctrough
  concentration at 7 day: 156 ng/mL
[3]
  AUC: 2320 ± 383 ng·h/mL
  Cmax: 379 ± 60.6 ng/mL
Both sexes, human, plasma, oral, 120 mg, 120 mg BID, day 1, read-out: AUC0-t
  AUC(0-t): 2310 ± 380 ng·h/mL
Both sexes, human, plasma, oral, 120 mg, 120 mg BID, day 1, read-out: Tmax, median (min, max)
  Tmax: 3 h
[4]
  concentration at 2 day: 152 ± 93.3 ng/mL
  concentration at 3 day: 144 ± 98.8 ng/mL
  concentration at 4 day: 126 ± 84.4 ng/mL
  concentration at 5 day: 145 ± 67.5 ng/mL
  concentration at 6 day: 161 ± 87.5 ng/mL
[5]
  AUC: 2580 ± 1030 ng·h/mL
  Cmax: 416 ng/mL
Both sexes, human, plasma, oral, 120 mg, 120 mg BID, day 7, read-out: AUC0-24, total daily exposure calculated as AUC0-12 × 2
  AUC(0-t): 5160 ng·h/mL
Both sexes, human, plasma, oral, 120 mg, 120 mg BID, day 7, read-out: AUC0-t
  AUC(0-t): 4170 ± 2090 ng·h/mL
Both sexes, human, plasma, oral, 120 mg, 120 mg BID, day 7, read-out: Cavg
  concentration at 7 day: 215 ± 85.9 ng/mL
Both sexes, human, plasma, oral, 120 mg, 120 mg BID, day 7, read-out: Cmin
  concentration at 7 day: 96.1 ± 64.1 ng/mL
Both sexes, human, plasma, oral, 120 mg, 120 mg BID, day 7, read-out: Tmax, median (min, max)
  Tmax: 2 h
Both sexes, human, plasma, oral, 120 mg, 120 mg BID, day 7, read-out: t1/2 (converted)
  half-life: 8.7 ± 2.4 h
Both sexes, human, plasma, oral, MAD cohorts 10-50 mg BID, day 7, read-out: terminal half-life (mean t1/2), range over cohorts
  half-life: 9 to 12 h
Both sexes, human, plasma, oral, SAD cohorts, fasted, read-out: mean t1/2, range across dose cohorts
  half-life: 9 to 11 h
Both sexes, human, plasma, oral, SAD cohorts, fasted, read-out: median Tmax, range across dose cohorts
  Tmax: 2 to 4 h
Both sexes, human, plasma, oral, 50 mg BID, day 7
  Vd/F: 586 ± 163 L
Both sexes, human, plasma, oral, 80 mg BID, day 7
  Vd/F: 690 ± 294 L
Both sexes, human, plasma, oral, 120 mg BID, day 7
  Vd/F: 621 ± 183 L
[6]
  AUC(0-inf): 285 ng·h/mL
  Cmax: 39.4 ng/mL
Both sexes, human, plasma, po, 10 mg, single oral dose 10 mg, fasted, read-out: Tmax, median (min, max)
  Tmax: 2 h
Both sexes, human, plasma, po, 10 mg, single oral dose 10 mg, fasted, read-out: t1/2 (converted)
  half-life: 8.5 h
[7]
  AUC(0-inf): 1100 ng·h/mL
  Cmax: 122 ng/mL
Both sexes, human, plasma, po, 30 mg, single oral dose 30 mg, fasted, read-out: Tmax, median (min, max)
  Tmax: 4 h
Both sexes, human, plasma, po, 30 mg, single oral dose 30 mg, fasted, read-out: t1/2 (converted)
  half-life: 10.7 h
[8]
  AUC(0-inf): 1460 ng·h/mL
  Cmax: 161 ng/mL
Both sexes, human, plasma, po, 50 mg, single oral dose 50 mg, fasted, read-out: Tmax, median (min, max)
  Tmax: 3 h
Both sexes, human, plasma, po, 50 mg, single oral dose 50 mg, fasted, read-out: t1/2 (converted)
  half-life: 9.1 h
[9]
  AUC(0-inf): 3650 ng·h/mL
  Cmax: 426 ng/mL
Both sexes, human, plasma, po, 100 mg, single oral dose 100 mg, fasted, read-out: Tmax, median (min, max)
  Tmax: 2 h
Both sexes, human, plasma, po, 100 mg, single oral dose 100 mg, fasted, read-out: t1/2 (converted)
  half-life: 11.2 h
[10]
  AUC(0-inf): 4100 ng·h/mL
  Cmax: 371 ng/mL
Both sexes, human, plasma, po, 100 mg, single oral dose 100 mg, fed (high-fat, high-calorie breakfast), read-out: Tmax, median (min, max)
  Tmax: 6 h
Both sexes, human, plasma, po, 100 mg, single oral dose 100 mg, fed (high-fat, high-calorie breakfast), read-out: t1/2 (converted)
  half-life: 6.3 h
Single oral dose 10 mg, fasted
  AUC(0-t): 276.3 ± 77.8 ng·h/mL
  CL/F: 37.0 ± 8.8 L/h
  Tmax, median (min, max): 2.0 (2.0-4.0) h
  Vz/F: 430.2 ± 124.0 L
  t1/2: 8.5 ± 3.2 h
Single oral dose 30 mg, fasted
  AUC(0-t): 1074.0 ± 243.5^a h*ng/mL
  CL/F: 28.4 ± 7.1^a L/h
  Tmax, median (min, max): 4.0 (2.0-4.1) h
  Vz/F: 451.4 ± 201.5^a L
Single oral dose 50 mg, fasted
  AUC(0-t): 1430.0 ± 254.0 ng·h/mL
  CL/F: 35.1 ± 6.3 L/h
  Tmax, median (min, max): 3.0 (2.0-4.0) h
  Vz/F: 445.0 ± 94.7 L
  t1/2: 9.1 ± 2.4 h
[11]
  AUC(0-t): 3489.8 ± 475.7 ng·h/mL
  CL/F: 27.9 ± 4.3 L/h
  Tmax, median (min, max): 2.0 (2.0, 4.0) h and 2.0 (2.0-4.0) h
  Vz/F: 439.8 ± 189.7 L
  t1/2: 11.2 ± 5.8 h
Single oral dose 100 mg, fed (high-fat, high-calorie breakfast)
  Tmax, median (min, max): 6.0 (4.0, 12.0) h
twice-daily administration, all dose levels 10-50 mg
  steady state reached by day: ≤ 2 days
